Measurements as given in patent US20190352297A1, “SELECTIVE AURORA A KINASE INHIBITORS” (UNIVERSITAT BERN, priority 2017, published 2019).
“Also recorded” adds a separate entry of the source.

How the values were obtained:
AuroraB/INCENP complex = target: T1, AuroraB/INCENP complex (Homo sapiens, UniProt Q96GD4); experiment: HTRF kinase assay, AuroraB/INCENP complex; format: biochemical
T1 construct: purchased Millipore 14-835
Procedure: Aurora A and AuroraB kinases were assayed using the homogeneous time-resolved fluorescence (HTRF) KinEASE STK2 kit from Cisbio (France). […] For both enzymes, the reactions were run for 30 min at room temperature and stopped by the addition of 10 μL of detection buffer containing EDTA, antiphospho-Ser/Thr antibody labelled with europium cryptate, and XL-665 conjugated streptavidin (62.5 nM final concentration). After incubation at room temperature for one hour, fluorescence was measured at 620 nm (europium cryptate) and 665 nm (XL-665) after excitation at 317 nm (lag time 60 μs, integration time 500 μs) using a Tecan Infinite M1000 PRO microplate reader (Greiner 384-well plates, white, non-binding, small volume). The ratio of fluorescence (665 nm/620 nm) was calculated for each well and the results were expressed as follows: specific signal=ratio (sample)−ratio (negative control), where ratio=665 nm/620 nm×10^4. Compounds were measured in threefold serial dilutions at 10 different concentrations, covering the concentration range from no to full inhibition. Each concentration was measured in duplicates, and two independent determinations were made for each IC50 value. IC50 curves were generated using a four-parameter logistic model (XLfit from IDBS).

[1] = tested on: phospho-Histone H3 Ser10 (Aurora B); experiment: Phospho-Histone H3 Ser10 in cells (Aurora B activity); format: cell-based, human
Procedure: (§1) HeLa Kyoto cells were cultured in high-glucose DMEM with GlutaMAX (Life Technologies) media supplemented with 10% fetal calf serum (FCS) in a humidified 5% CO2 incubator at 37° C. For plasmid transfections, cells were seeded at 80-90% confluence. 4 μg of plasmid DNA in 100 μl OptiMEM and 4 μl of Lipofectamine 2000 (Life Technologies) in 100 μl OptiMEM were incubated in parallel for 5 minutes, mixed for 20 minutes and added to each well. All Aurora A clones were constructed using full-length Aurora A as a template with appropriate PCR primer pairs. […] GFP-Aurora AR137A and GFP-Aurora AW277A were engineered using a site directed mutagenesis kit (Agilent Technologies, no. 210515) with appropriate primers. For determining the mitotic index and the chromosome misalignment phenotype, cells were incubated with various concentrations of compounds for 20 h before analysis. Cells were likewise treated with 0.25 μM MLN8237 (Selleckchem, no. S1133) or 5 μM ZM447439 (Selleckchem, no. S1103). For flow cytometry analysis, 50 nM […] and 2.5 μM ZM447439 were used. For rescue experiments, HeLa Kyoto cells were first transfected with GFP-Aurora A, GFP-Aurora AR137A or GFP-Aurora AW277A for 20 h, followed by incubation with 9 for another 20 h before cells were fixed with cold methanol and stained. To assess the impact of compound 9 on cell cycle progression, DNA content was analyzed after propidium iodide staining using FACS (BD Accuri C6 flow cytometer).
For immunofluorescence, cells were fixed in cold methanol, washed in PBT (PBS supplemented with 0.05% Tween-20) and stained with the following primary antibodies: 1:200 rabbit anti-pT288 (Cell Signaling, C39D8), 1:200 rabbit anti-pH3S10 (Cell Signaling, D2C8), 1:500 mouse anti-α-tubulin (Transduction Laboratories, 612709), 1:300 mouse anti-GFP (MAB3580, Millipore), 1:200 anti-TPX2 (Santa Cruz Biotechnology, sc-32863), anti-Aurora A (Invitrogen, 458900). Secondary antibodies were anti-mouse conjugated to Alexa488 or Alexa568, as well as anti-rabbit conjugated to Alexa488 or Alexa568, all used at 1:500 (Invitrogen). Confocal images were acquired on a Zeiss LSM 710 confocal microscope equipped with a Axiocam MRm (B/VVW) CCD camera using a 63×NA 1.0 oil objective and processed in ImageJ and Adobe Photoshop, maintaining relative image intensities within a series.

GFP-Aurora A-Trp277Ala = target: T2, GFP-Aurora A-Trp277Ala (Homo sapiens, UniProt O14965, W277A); experiment: Phenotypic rescue, cells expressing mutant Aurora A; format: cell-based
T2 construct: All Aurora A clones were constructed using full-length Aurora A as a template; expressed in transfected cells; host or cells: HeLa Kyoto
T2 sequence (O14965 1-403 W277A): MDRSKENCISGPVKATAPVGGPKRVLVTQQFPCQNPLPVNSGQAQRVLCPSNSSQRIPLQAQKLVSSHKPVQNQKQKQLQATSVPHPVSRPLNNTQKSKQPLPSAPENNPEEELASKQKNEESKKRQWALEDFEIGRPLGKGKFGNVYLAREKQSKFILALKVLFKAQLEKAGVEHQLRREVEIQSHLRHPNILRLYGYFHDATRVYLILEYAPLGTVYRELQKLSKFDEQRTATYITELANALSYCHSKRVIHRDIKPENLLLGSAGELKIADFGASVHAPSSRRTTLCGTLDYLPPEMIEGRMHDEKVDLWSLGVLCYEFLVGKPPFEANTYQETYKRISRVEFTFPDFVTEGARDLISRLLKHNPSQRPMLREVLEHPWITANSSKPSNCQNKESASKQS
Procedure: as §1, with “For rescue experiments, HeLa Kyoto cells were first transfected with GFP-Aurora A, GFP-Aurora AR137A or GFP-Aurora AW277A for 20 h, followed by incubation with 9 for another 20 h before cells were fixed with cold methanol and stained.” left out

[2] = In vitro reactivity towards glutathione (GSH); format: physicochemical; conditions: after 24 h with 5 mM GSH, pH 7.4, 37° C.
Procedure: […] Reaction scheme and structures of modified analogs. b. LC chromatogram of the reaction mixture after t=0 h and t=14 h. […] 9-methylcarbazole (tret=2.44 min) was used as internal control. c. Concentration of compound 9 during the course of the reaction as determined by integration of the absorption peaks (at 310 nm) of compound 9 at tret=1.78 min. The average of two independent experiments is shown, SD is <5% for all data points. d. Aurora A inhibition in the HTRF biochemical assay. (d) Cellular pThr288 Aurora-A levels of cells incubated with 9 or rac-92 overnight at the indicated concentrations. The experiment was repeated twice and the error bars represent SD. […] Numbers represent average IC50±SD of two independent experiments.

[3] = tested on: Aurora A localization, HeLa Kyoto cells; experiment: Aurora A localization at the mitotic spindle (immunofluorescence); format: cell-based, human; conditions: overnight
Procedure: as §1
Secondary antibodies were anti-mouse conjugated to Alexa488 or Alexa568, as well as anti-rabbit conjugated to Alexa488 or Alexa568, all used at 1:500 (Invitrogen). Confocal images were acquired on a Zeiss LSM 710 confocal microscope equipped with a Axiocam MRm (B/VVW) CCD camera using a 63×NA 1.0 oil objective and processed in ImageJ and Adobe Photoshop, maintaining relative image intensities within a series.

T1 sequence (Q96GD4 whole entry): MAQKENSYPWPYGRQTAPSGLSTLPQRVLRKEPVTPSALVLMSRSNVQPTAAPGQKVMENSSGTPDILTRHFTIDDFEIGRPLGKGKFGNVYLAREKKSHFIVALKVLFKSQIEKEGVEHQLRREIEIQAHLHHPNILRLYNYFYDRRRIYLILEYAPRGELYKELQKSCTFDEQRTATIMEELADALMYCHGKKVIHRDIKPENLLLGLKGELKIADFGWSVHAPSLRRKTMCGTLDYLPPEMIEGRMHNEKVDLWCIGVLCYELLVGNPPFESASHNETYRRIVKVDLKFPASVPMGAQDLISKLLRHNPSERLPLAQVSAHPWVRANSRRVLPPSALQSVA
T1 sequence (Q9NQS7 whole entry partner): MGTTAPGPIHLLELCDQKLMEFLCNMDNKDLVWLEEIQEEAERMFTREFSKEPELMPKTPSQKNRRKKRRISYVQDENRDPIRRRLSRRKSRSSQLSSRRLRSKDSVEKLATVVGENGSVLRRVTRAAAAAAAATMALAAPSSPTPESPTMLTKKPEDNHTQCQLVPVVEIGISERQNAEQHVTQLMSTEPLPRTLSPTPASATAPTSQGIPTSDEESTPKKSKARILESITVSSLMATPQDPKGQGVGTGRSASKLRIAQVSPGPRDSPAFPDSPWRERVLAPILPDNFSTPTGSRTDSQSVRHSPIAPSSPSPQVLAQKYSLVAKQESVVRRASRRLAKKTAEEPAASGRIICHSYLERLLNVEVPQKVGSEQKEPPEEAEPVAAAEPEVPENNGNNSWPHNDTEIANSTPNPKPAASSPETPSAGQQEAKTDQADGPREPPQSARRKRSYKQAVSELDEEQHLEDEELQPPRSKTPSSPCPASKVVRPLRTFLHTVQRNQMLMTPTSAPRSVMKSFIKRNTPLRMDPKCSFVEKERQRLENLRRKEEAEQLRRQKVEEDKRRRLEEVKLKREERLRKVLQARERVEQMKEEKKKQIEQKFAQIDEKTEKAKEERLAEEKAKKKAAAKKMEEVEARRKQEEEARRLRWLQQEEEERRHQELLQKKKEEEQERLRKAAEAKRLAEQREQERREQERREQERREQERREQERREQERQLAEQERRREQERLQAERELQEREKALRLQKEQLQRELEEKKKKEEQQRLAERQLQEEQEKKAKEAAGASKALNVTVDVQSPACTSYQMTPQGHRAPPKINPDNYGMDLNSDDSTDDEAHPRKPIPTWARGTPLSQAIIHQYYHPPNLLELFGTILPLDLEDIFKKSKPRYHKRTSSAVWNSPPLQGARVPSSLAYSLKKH

IC50 (AuroraB/INCENP complex; 20 μM ATP, HTRF, read-out: IC50 Aurora B in complex with INCENP (biochemical)): 0.149 ± 0.003 µM
weaker inhibition of Aurora B/INCENP compared to KD measured with free Aurora B (AuroraB/INCENP complex; IC50 Aurora B/INCENP versus KD free Aurora B): 15 fold
IC50 ([1]; Aurora B/INCENP, cells, read-out: cellular IC50 (pH3)): > 25 µM
sensitivity of GFP-Aurora A-Trp277Ala to inhibitor (GFP-Aurora A-Trp277Ala): insensitive
conversion to GSH adduct [2]: 50%
SMILES: CCc1ccc(N=C2SC(=Cc3ccnc(Nc4ccc(C(=O)O)cn4)c3)C(=O)N2C)cc1 [Compound 9]
effect on Aurora B activity in cells [1]: no effect; also recorded: without impairing Aurora B function
distribution of phospho-Histone H3 Ser10 ([1]; treated cells): remained unchanged
Aurora A localization at spindle microtubules and centrosomes [3]: notably displaced from the spindle microtubules; also recorded: impairs Aurora A localization at the spindle microtubules
